Data on three molecules can be found in patent US20170101431A1, “NUCLEOSIDE DERIVATIVES FOR THE TREATMENT OF CANCER” (IDENIX PHARMACEUTICALS LLC, priority 2014, published 2017).

Structures are written as SMILES. pIC50: −log10 of the molar value.

What all share (assay type): cell-based
One experiment has as its system CCRF-CEM. The experiment in a line: In vitro inhibition, CellTiter-Glo (CTG) assay, CCRF-CEM. As to conditions: 72 hr exposure. On the procedure: (§1) Cells were grown in RPMI-1640 supplemented with L-Glutamine and 10% FBS of the following cancer cell lines:
(§2) CCRF-CEM; CCRF-CEM-cytarabine resistant; HL-60;
(§3) 18, 96 well plates of each cell line were seeded with the optimized number of cells per well in a total volume of 50 μL per well. The plates were left overnight. Plate wells were seeded with 100 μL media for media control. The following day, cells were exposed to test compounds as described below. At the same time as drug exposure, a CTG assay was conducted on the 18th plate for the 0 hr count.
(§4) The compounds were added to cells and medium already on the plate to give desired final concentrations. 50 μL media were added to cell control wells, and 50 μL of mix added to vehicle control wells. 10 μM Doxorubicin was added to appropriate wells as control. Cells exposed to test compound were incubated at 37° C. for 72 hr followed by a CTG assay.
(§5) At the end of the 72 hr exposure period, plates were removed for a CellTiter-Glo (CTG) assay from a 37° C., 5% CO2 incubator and placed on the bench at room temperature for 30 mins. 100 μL of CellTiter-Glo reagent was added and mixed for 2 mins, followed by a further 10 min incubation at room temperature. Luminescence was recorded using Synergy 4.0.

Experiment [1] relates to CCRF-CEM-cytarabine resistant. The experiment in a line: In vitro inhibition, CellTiter-Glo (CTG) assay, CCRF-CEM-cytarabine resistant. As to conditions: 72 hr exposure. On the procedure: as §1, §2, §3, §4, §5
For a further experiment, the system named is HL-60. The experiment in a line: In vitro inhibition, CellTiter-Glo (CTG) assay, HL-60. As to conditions: HL-60, 72 hr exposure. The method, then:
as §1, §2, §3, §4, §5

Turning to `C[C@H](NP1(=O)OC[C@H]2O[C@@H](n3cnc4c(N)nc(Cl)nc43)[C@@H](F)[C@@H]2O1)C(=O)OCc1ccccc1` (single isomer, unassigned) [Compound 26b], the pIC50 in the experiment with CCRF-CEM is over 6.00; in experiment [1] it was 5.00 to 6.00; in the experiment with HL-60 it was over 6.00.

With `C[C@H](NP1(=O)OC[C@H]2O[C@@H](n3cnc4c(N)nc(Cl)nc43)[C@@H](F)[C@@H]2O1)C(=O)OCc1ccccc1` (single isomer, unassigned) [Compound 26a], the pIC50 with CCRF-CEM (Homo sapiens) is over 6.00; in experiment [1] (72 h) it was 5.00 to 6.00; with HL-60 (Homo sapiens, HL-60, 72 h), over 6.00.

Turning to `Nc1ccn([C@@H]2O[C@H](COP(=O)(OCc3cnc([N+](=O)[O-])s3)OCc3cnc([N+](=O)[O-])s3)[C@@H](O)[C@@H]2O)c(=O)n1` [Compound 24b, [(2R,3S,4S,5R)-5-(4-amino-2-oxo-pyrimidin-1-yl)-3,4-dihydroxy-tetrahydrofuran-2-yl]methyl bis[(2-nitrothiazol-5-yl)methyl]phosphate], the pIC50 with CCRF-CEM (Homo sapiens) was over 6.00; in experiment [1], 4.60 to 5.00; in the experiment on HL-60 (Homo sapiens), over 6.00.
